Experimental data taken from ChEMBL document CHEMBL1137178, “Design, synthesis and antimalarial activity of a glyoxylylhydrazone library” (Bioorg Med Chem Lett, 2004).

Experiments:
[1] = target: T1, Histidine-rich protein PFHRP-II (Plasmodium falciparum) (UniProt P05227); assay: In vitro inhibition of beta-hematin formation in Plasmodium falciparum at 100 uM; assay type: functional
T1 sequence (whole entry): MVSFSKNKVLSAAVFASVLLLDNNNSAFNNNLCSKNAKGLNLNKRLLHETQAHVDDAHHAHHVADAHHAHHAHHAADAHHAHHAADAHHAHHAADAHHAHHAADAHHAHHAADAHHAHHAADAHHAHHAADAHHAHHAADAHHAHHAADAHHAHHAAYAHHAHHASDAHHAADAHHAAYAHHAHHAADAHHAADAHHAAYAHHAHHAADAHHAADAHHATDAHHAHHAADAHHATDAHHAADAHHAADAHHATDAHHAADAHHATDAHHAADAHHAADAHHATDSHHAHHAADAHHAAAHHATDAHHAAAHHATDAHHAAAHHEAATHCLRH

Plasmodium falciparum [2] = assay: Inhibitory concentration against chloroquine-resistant Plasmodium falciparum FcB1; assay type: functional, organism-based
Plasmodium falciparum [3] = assay: Growth inhibition against Plasmodium falciparum FcB1 at 200 nM; assay type: functional
MRC5 [4] = assay: Cytotoxic effect on human diploid embryonic lung cell line (MRC-5) using the colorimetric MTT assay; assay type: functional
Plasmodium falciparum [5] = assay: Growth inhibitory concentration against chloroquine-resistant Plasmodium falciparum; assay type: functional, organism-based
MRC5 [6] = assay: Selectivity index measured as CC50/IC50; assay type: functional, Homo sapiens

## O=C(/C=N/Nc1ccc(F)c(Cl)c1)NCCCCCCCNc1ccnc2cc(Cl)ccc12
[1]
  inhibition: 0%
Plasmodium falciparum [2]
  IC50: 200 nM

## CCO/N=C/C(=O)NCCCCCCCNc1ccnc2cc(Cl)ccc12
[1]
  inhibition: 0%
Plasmodium falciparum [3]
  inhibition at 0.2 µM: 11%

## COC(=O)c1sccc1N/N=C/C(=O)NCCCCCCCNc1ccnc2cc(Cl)ccc12
[1]
  inhibition: 11%
Plasmodium falciparum [3]
  inhibition at 0.2 µM: 13%

## Cc1ccc(N/N=C/C(=O)NCCCCCCCNc2ccnc3cc(Cl)ccc23)c(C)c1
[1]
  inhibition: 8%
Plasmodium falciparum [2]
  IC50: 86 nM

## O=C(/C=N/Nc1ccc([N+](=O)[O-])cc1[N+](=O)[O-])NCCCCCCCNc1ccnc2cc(Cl)ccc12
MRC5 [4]
  CC50: 11100 nM
[1]
  inhibition: 25%
Plasmodium falciparum [2]
  IC50: 13 nM
Plasmodium falciparum [5]
  IC50: 47.3 nM
MRC5 [6]
  SI: 235

## O=C(/C=N/Nc1ccc(Cl)nn1)NCCCCCCCNc1ccnc2cc(Cl)ccc12
[1]
  inhibition: 0%
Plasmodium falciparum [2]
  IC50: 180 nM

## COc1ccc2nc(N/N=C/C(=O)NCCCCCCCNc3ccnc4cc(Cl)ccc34)nnc2c1
MRC5 [4]
  CC50: 2500 nM
[1]
  inhibition: 28%
Plasmodium falciparum [2]
  IC50: 45 nM
Plasmodium falciparum [5]
  IC50: 73.7 nM
MRC5 [6]
  SI: 34

## CN(/N=C/C(=O)NCCCCCCCNc1ccnc2cc(Cl)ccc12)c1ncccc1[N+](=O)[O-]
[1]
  inhibition: 18%
Plasmodium falciparum [3]
  inhibition at 0.2 µM: 3%

## O=C(/C=N/OCc1ccccc1)NCCCCCCCNc1ccnc2cc(Cl)ccc12
[1]
  inhibition: 0%
Plasmodium falciparum [3]
  inhibition at 0.2 µM: 29%

## O=C(/C=N/O)NCCCCCCCNc1ccnc2cc(Cl)ccc12
[1]
  inhibition: 6%
Plasmodium falciparum [3]
  inhibition at 0.2 µM: 10%

## CCOCC(=O)N/N=C/C(=O)NCCCCCCCNc1ccnc2cc(Cl)ccc12
[1]
  inhibition: 12%
Plasmodium falciparum [3]
  inhibition at 0.2 µM: 59%

## O=C(/C=N/Nc1cnc2ccccc2n1)NCCCCCCCNc1ccnc2cc(Cl)ccc12
[1]
  inhibition: 0%
Plasmodium falciparum [2]
  IC50: 90 nM

## O=C(/C=N/OCc1ccc([N+](=O)[O-])cc1)NCCCCCCCNc1ccnc2cc(Cl)ccc12
MRC5 [4]
  CC50: 1700 nM
[1]
  inhibition: 0%
Plasmodium falciparum [2]
  IC50: 5 nM
Plasmodium falciparum [5]
  IC50: 62.3 nM
MRC5 [6]
  SI: 27

## O=C(/C=N/NCc1ccccc1)NCCCCCCCNc1ccnc2cc(Cl)ccc12
MRC5 [4]
  CC50: 14600 nM
[1]
  inhibition: 0%
Plasmodium falciparum [2]
  IC50: 35 nM
Plasmodium falciparum [5]
  IC50: 161 nM
MRC5 [6]
  SI: 91

## O=C(/C=N/OCc1c(F)c(F)c(F)c(F)c1F)NCCCCCCCNc1ccnc2cc(Cl)ccc12
[1]
  inhibition: 0%
Plasmodium falciparum [3]
  inhibition at 0.2 µM: 33%

## C=CCO/N=C/C(=O)NCCCCCCCNc1ccnc2cc(Cl)ccc12
[1]
  inhibition: 3%
Plasmodium falciparum [2]
  IC50: > 500 nM

## O=C(/C=N/Nc1nc(-c2cccs2)ns1)NCCCCCCCNc1ccnc2cc(Cl)ccc12
[1]
  inhibition: 19%
Plasmodium falciparum [3]
  inhibition at 0.2 µM: 8%

## O=C(/C=N/Nc1c(Cl)cc(C(F)(F)F)cc1Cl)NCCCCCCCNc1ccnc2cc(Cl)ccc12
MRC5 [4]
  CC50: 9200 nM
[1]
  inhibition: 7%
Plasmodium falciparum [2]
  IC50: 16 nM
Plasmodium falciparum [5]
  IC50: 88.7 nM
MRC5 [6]
  SI: 104

## O=C(/C=N/Nc1ccnc2cc(Cl)ccc12)NCCCCCCCNc1ccnc2cc(Cl)ccc12
MRC5 [4]
  CC50: 1400 nM
[1]
  inhibition: 0%
Plasmodium falciparum [2]
  IC50: 7 nM
Plasmodium falciparum [5]
  IC50: 19.3 nM
MRC5 [6]
  SI: 73

## CCN(CC)CCCC(C)Nc1ccnc2cc(Cl)ccc12 (centres undefined) [CHLOROQUINE]
MRC5 [4]
  CC50: 50000 nM
[1]
  inhibition: 55%

## O=C(/C=N/Nc1ccc(Cl)cc1Cl)NCCCCCCCNc1ccnc2cc(Cl)ccc12
[1]
  inhibition: 12%
Plasmodium falciparum [3]
  inhibition at 0.2 µM: 0%

## CO/N=C/C(=O)NCCCCCCCNc1ccnc2cc(Cl)ccc12
[1]
  inhibition: 4%
Plasmodium falciparum [3]
  inhibition at 0.2 µM: 11%

## CC(C)(C)O/N=C/C(=O)NCCCCCCCNc1ccnc2cc(Cl)ccc12
[1]
  inhibition: 0%
Plasmodium falciparum [3]
  inhibition at 0.2 µM: 14%

## Cc1cc(N/N=C/C(=O)NCCCCCCCNc2ccnc3cc(Cl)ccc23)nc(C)n1
[1]
  inhibition: 19%
Plasmodium falciparum [3]
  inhibition at 0.2 µM: 0%

## Cc1cc(N/N=C/C(=O)NCCCCCCCNc2ccnc3cc(Cl)ccc23)nc2c1c(C)nn2C
MRC5 [4]
  CC50: 1800 nM
[1]
  inhibition: 0%
Plasmodium falciparum [2]
  IC50: 30 nM
Plasmodium falciparum [5]
  IC50: 63.9 nM
MRC5 [6]
  SI: 28

## O=C(/C=N/Nc1ccc(F)cc1F)NCCCCCCCNc1ccnc2cc(Cl)ccc12
[1]
  inhibition: 0%
Plasmodium falciparum [2]
  IC50: 105 nM

## CC(C)(C)N/N=C/C(=O)NCCCCCCCNc1ccnc2cc(Cl)ccc12
[1]
  inhibition: 0%
Plasmodium falciparum [2]
  IC50: 60 nM

## O=C(/C=N/Nc1ccccc1)NCCCCCCCNc1ccnc2cc(Cl)ccc12
[1]
  inhibition: 0%
Plasmodium falciparum [3]
  inhibition at 0.2 µM: 0%

## CC(C)(C)c1ccc(N/N=C/C(=O)NCCCCCCCNc2ccnc3cc(Cl)ccc23)cc1
[1]
  inhibition: 1%
Plasmodium falciparum [3]
  inhibition at 0.2 µM: 32%
